Assay results: patent US20060235078A1, “Insulin secretion potentiator” (Use-Techno Corporation, priority 2003, published 2006)

These compounds were tested on borderline diabetic patients (assay: glucose tolerance test after administration of corosolic acid or placebo, blood insulin level (IRI) assayed). Settings: 31 borderline diabetic patients, 10 mg oral, 75 g oral glucose load, 30 minutes after start of glucose tolerance test.
Format: in vivo, human
Experimental: The following test was conducted to confirm that corosolic acid has an early insulin secretion stimulating effect. A glucose tolerance test was performed after administration of corosolic acid or a placebo, in a double-blind crossover manner, and the blood insulin level (IRI: immunoreactive insulin) was assayed. Significant change in the IRI was judged by Student's t-test with the significance level (p value) as 0.05.
First, 31 borderline diabetic patients as test subjects were orally administered corosolic acid (10 mg, ≧99% purity) or a placebo, and blood was sampled immediately thereafter with the blood insulin level at that time designated as the value at 0 minutes. Immediately after blood sampling, 75 g of glucose was orally administered to each test subject to start a glucose tolerance test, and blood was sampled after periods of 30 minutes, 60 minutes, 90 minutes, 120 minutes and 180 minutes for measurement of the blood insulin level.
FIG. 1 is a graph showing changes in the blood insulin levels during the glucose tolerance test. The horizontal axis represents time (minutes) after start of the glucose tolerance test, and the vertical axis represents IRI (μU/mL). In the graph, (a) is a case with administration of corosolic acid and (b) is a case with administration of the placebo.

Structure (SMILES)	blood insulin level (IRI) compared to placebo
C[C@H]1[C@H](C)CC[C@]2(C(=O)O)CC[C@]3(C)C(=CC[C@@H]4[C@@]5(C)C[C@@H](O)[C@H](O)C(C)(C)[C@@H]5CC[C@]43C)[C@H]12 [corosolic acid]	significant increase in blood insulin level

Same assay, conditions: 31 borderline diabetic patients, 10 mg oral, 75 g oral glucose load, 120 minutes after start of glucose tolerance test

Structure (SMILES)	blood insulin level (IRI) compared to placebo
C[C@H]1[C@H](C)CC[C@]2(C(=O)O)CC[C@]3(C)C(=CC[C@@H]4[C@@]5(C)C[C@@H](O)[C@H](O)C(C)(C)[C@@H]5CC[C@]43C)[C@H]12 [corosolic acid]	significant drop in blood insulin level

What follows are compounds tested on KK-Ay mice (assay: blood glucose level in KK-Ay mice (genetic type II diabetes model) after oral administration). Settings: 10 mg/kg oral, blood sampled before and at 4 and 7 hours after administration (tormentic acid: before and 4 hours), n=4, p 0.05.
Format: in vivo
Experimental: KK-Ay mice (CLEA Japan, Inc.), a genetic type II diabetes model, were used as the test animals. […] The animal feeding conditions were at constant temperature (22±2° C.) throughout the test period, and the light-dark period was 12 hours (light period: 9:00 am-9:00 pm). The feed (CE-2, CLEA Japan, Inc.) and water (tap water) were made freely available. The test substance was forcefully administered to the KK-Ay mice using a glass syringe and oral probe. The dose of each test substance was 10 mg/kg. Blood was sampled from the ocular fundus, immediately prior to and at 4 hours and 7 hours after the administration (for tormentic acid, immediately prior to and at 4 hours after the administration). The blood glucose was measured with a Glucose CII Test Wako (Wako Pure Chemical Industries Co., Ltd.).
The test substances used for this example were: corosolic acid (isolated from banaba leaves), maslinic acid (isolated from banaba leaves), asiatic acid (purchased from LKT Laboratories), 2α,19α-dihydroxy-3-oxo-urs-12-en-28-oic acid (isolated from loquat callus), ursolic acid (purchased from LKT Laboratories), oleanolic acid (purchased from LKT Laboratories), α-amyrin (purchased from LKT Laboratories), β-amyrin (purchased from LKT Laboratories), hederagenin (purchased from LKT Laboratories), 18β-glycyrrhetinic acid (purchased from Wako Pure Chemical Industries Co., Ltd.), sapindoside B (isolated from soapberry), and tormentic acid (isolated from loquat callus).
The blood glucose levels were measured using four KK-Ay mice for each test substance. The measurement results were recorded as mean±SE. Significant change in the blood glucose level was judged by Student's t-test with the significance level (p value) as 0.05.

Structure (SMILES)	hypoglycemic effect (change in blood glucose level)
C[C@@H]1CC[C@]2(C(=O)O)CC[C@]3(C)C(=CC[C@@H]4[C@@]5(C)C[C@@H](O)C(=O)C(C)(C)[C@@H]5CC[C@]43C)[C@@H]2[C@]1(C)O [2α,19α-dihydroxy-3-oxo-urs-12-en-28-oic acid]	significant hypoglycemic effects
CC1(C)[C@@H](O)CC[C@]2(C)[C@H]3C(=O)C=C4[C@@H]5C[C@@](C)(C(=O)O)CC[C@]5(C)CC[C@@]4(C)[C@]3(C)CC[C@@H]12 [18β-glycyrrhetinic acid]	no definite hypoglycemic effect
CC1(C)CC[C@]2(C(=O)O)CC[C@]3(C)C(=CC[C@@H]4[C@@]5(C)C[C@@H](O)[C@H](O)C(C)(C)[C@@H]5CC[C@]43C)[C@@H]2C1 [Maslinic acid, maslinic acid]	did not exhibit a significant hypoglycemic effect but did exhibit a tendency toward reducing blood glucose level
C[C@H]1[C@H](C)CC[C@]2(C(=O)O)CC[C@]3(C)C(=CC[C@@H]4[C@@]5(C)C[C@@H](O)[C@H](O)[C@@](C)(CO)[C@@H]5CC[C@]43C)[C@H]12 [asiatic acid]	significant hypoglycemic effects
C[C@H]1[C@H](C)CC[C@]2(C(=O)O)CC[C@]3(C)C(=CC[C@@H]4[C@@]5(C)C[C@@H](O)[C@H](O)C(C)(C)[C@@H]5CC[C@]43C)[C@H]12 [corosolic acid]	significant hypoglycemic effects
CC1(C)CC[C@]2(C(=O)O)CC[C@]3(C)C(=CC[C@@H]4[C@@]5(C)CC[C@H](O)[C@@](C)(CO)[C@@H]5CC[C@]43C)[C@@H]2C1 [hederagenin]	no definite hypoglycemic effect
CC1(C)CC[C@]2(C(=O)O)CC[C@]3(C)C(=CC[C@@H]4[C@@]5(C)CC[C@H](O)C(C)(C)[C@@H]5CC[C@]43C)[C@@H]2C1 [oleanolic acid]	no definite hypoglycemic effect
C[C@@H]1O[C@@H](O[C@H]2[C@H](O[C@H]3CC[C@@]4(C)[C@@H](CC[C@]5(C)[C@@H]4CC=C4[C@@H]6CC(C)(C)CC[C@]6(C(=O)O)CC[C@]45C)[C@]3(C)CO)OC[C@H](O)[C@@H]2O)[C@H](O)[C@H](O[C@@H]2OC[C@@H](O)[C@H](O)[C@H]2O)[C@H]1O [sapindoside B]	no definite hypoglycemic effect
C[C@@H]1CC[C@]2(C(=O)O)CC[C@]3(C)C(=CC[C@@H]4[C@@]5(C)C[C@@H](O)[C@H](O)C(C)(C)[C@@H]5CC[C@]43C)[C@@H]2[C@]1(C)O [tormentic acid]	significant hypoglycemic effects
C[C@H]1[C@H](C)CC[C@]2(C(=O)O)CC[C@]3(C)C(=CC[C@@H]4[C@@]5(C)CC[C@H](O)C(C)(C)[C@@H]5CC[C@]43C)[C@H]12 [ursolic acid]	no definite hypoglycemic effect
C[C@H]1[C@H](C)CC[C@]2(C)CC[C@]3(C)C(=CC[C@@H]4[C@@]5(C)CC[C@H](O)C(C)(C)[C@@H]5CC[C@]43C)[C@H]12 [α-amyrin]	no definite hypoglycemic effect
CC1(C)CC[C@]2(C)CC[C@]3(C)C(=CC[C@@H]4[C@@]5(C)CC[C@H](O)C(C)(C)[C@@H]5CC[C@]43C)[C@@H]2C1 [β-amyrin]	no definite hypoglycemic effect
